Measurements: US9850283B2, “Macrocyclic inhibitors of the PD-1/PD-L1 and CD80(B7-1)/PD-L1 protein/protein interactions” (BRISTOL-MYERS SQUIBB COMPANY, priority 2013, dated 2017)
Positions of bridges follow the written chain, without caps; N, C: chain ends. Non-standard residues stand in square brackets, D forms with d. Residues, ends and D or L forms follow the SMILES beside them. ξ: configuration not given here. *: point of attachment. Pro(3S-OH) = O=C(O)[C@H]1NCC[C@@H]1O; Bta = N[C@@H](Cc1csc2ccccc12)C(=O)O; ξPro(4R-OH) = O=C(O)C1C[C@@H](O)CN1; Hyp = O=C(O)[C@@H]1C[C@@H](O)CN1; dNMeNle = CCCC[C@@H](NC)C(=O)O; NMeNle = CCCC[C@H](NC)C(=O)O; Pip = O=C(O)[C@@H]1CCCCN1; NMeA = CN[C@@H](C)C(=O)O; Orn = NCCC[C@H](N)C(=O)O; Dab = NCC[C@H](N)C(=O)O; Dap = NC[C@H](N)C(=O)O; ξPip = O=C(O)C1CCCCN1; Alloc = C=CCOC(=O)*

Tests used:
[1] = molecular target: T1, Human PD-L1/PD-1 (Homo sapiens, UniProt Q9NZQ7); assay: HTRF PD-1-Ig/PD-L1-His binding assay (human PD-L1); details: cluster symbol; read-out: HTRF IC50 cluster
T1 construct: made in house; host or cells: HEK293T
T1 sequence (Q9NZQ7 with tags, fused parts or gaps): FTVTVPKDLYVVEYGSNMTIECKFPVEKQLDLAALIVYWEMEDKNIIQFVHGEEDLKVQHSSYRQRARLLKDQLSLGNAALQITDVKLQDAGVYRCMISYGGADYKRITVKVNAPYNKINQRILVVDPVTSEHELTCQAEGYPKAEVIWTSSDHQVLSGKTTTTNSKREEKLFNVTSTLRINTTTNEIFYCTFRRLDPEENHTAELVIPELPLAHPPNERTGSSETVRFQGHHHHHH
In short: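 Soluble PD-1-Ig binding to PD-L1-His measured by HTRF in dPBS with 0.1% BSA and 0.05% Tween-20. Detection used europium cryptate anti-Ig antibody (1 nM final) and APC anti-His antibody (20 nM final) added on top of the binding reaction.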

[2] = molecular target: T2, LK35.2-hPD-L1 cells / PE-labeled PD-1-Ig (Homo sapiens, UniProt Q9NZQ7); assay: LK35.2-hPD-L1 cell binding high-content screening assay; assay type: cell-based; details: cluster symbol; cell line of CBA not given (LK35.2-hPD-L1 or 293T-hPD-L1); read-out: CBA IC50 cluster
T2 construct: expressed in transfected cells; host or cells: LK35.2 mouse B cell line
T2 sequence (Q9NZQ7 19-290): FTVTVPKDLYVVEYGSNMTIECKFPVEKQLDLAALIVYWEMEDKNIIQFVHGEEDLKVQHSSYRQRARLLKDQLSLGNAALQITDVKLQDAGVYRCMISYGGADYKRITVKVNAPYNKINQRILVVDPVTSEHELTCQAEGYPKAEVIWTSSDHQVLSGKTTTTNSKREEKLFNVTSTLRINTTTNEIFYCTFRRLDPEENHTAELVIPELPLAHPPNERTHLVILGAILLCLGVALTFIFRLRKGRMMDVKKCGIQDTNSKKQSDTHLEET
In short: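 Readout: high-content imaging of PE-PD-1-Ig bound to LK35.2-hPD-L1 cells. Cells plated overnight (RPMI/10% FCS); compound + 1 nM PE-PD-1-Ig, 1 h, 37 °C; 3× dPBS wash before imaging.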

IC50 [1]	IC50 [2]	SMILES
6.76 to 30.3 nM	4.78 to 72.9 nM	CCCC[C@@H]1C(=O)N(C)[C@H](CCCC)C(=O)N[C@@H](CCCNC(=N)N)C(=O)N[C@@H](C(=O)NCC(N)=O)CSCC(=O)N[C@@H](Cc2ccc(O)cc2)C(=O)N2CCCCC2C(=O)N[C@H](CC(=O)O)C(=O)N2CCC[C@H]2C(=O)N[C@H](Cc2c[nH]cn2)C(=O)N[C@@H](CCCN)C(=O)N2C[C@H](O)CC2C(=O)N[C@H](Cc2c[nH]c3ccccc23)C(=O)N[C@@H](CO)C(=O)N[C@@H](Cc2c[nH]c3ccccc23)C(=O)N1C (stereo partly drawn) [Example 1218] ({CH2CO}-Y[ξPip][dD]P[dH][Orn][ξPro(4R-OH)][dW]SW[dNMeNle][dNMeNle]R[dC]G-NH2; thioether N-14)
6.76 to 30.3 nM	0.158 to 4.71 nM	CCCC[C@@H]1C(=O)N(C)[C@H](CCCC)C(=O)N[C@@H](CCCN)C(=O)N[C@@H](C(=O)NCC(N)=O)CSCC(=O)N[C@@H](Cc2ccc(O)cc2)C(=O)N2CCCCC2C(=O)N[C@H](CC(=O)O)C(=O)N2CCC[C@H]2C(=O)N[C@H](Cc2c[nH]cn2)C(=O)N[C@@H](CCC(=O)O)C(=O)N2C[C@H](O)CC2C(=O)N[C@H](Cc2c[nH]c3ccccc23)C(=O)N[C@@H](CO)C(=O)N[C@@H](Cc2c[nH]c3ccccc23)C(=O)N1C (stereo partly drawn) [Example 1219] ({CH2CO}-Y[ξPip][dD]P[dH]E[ξPro(4R-OH)][dW]SW[dNMeNle][dNMeNle][Orn][dC]G-NH2; thioether N-14)
6.76 to 30.3 nM	4.78 to 72.9 nM	CCCC[C@@H]1C(=O)N(C)[C@H](CCCC)C(=O)N[C@@H](CCCN)C(=O)N[C@@H](C(=O)NCC(N)=O)CSCC(=O)N[C@@H](Cc2ccc(O)cc2)C(=O)N2CCNCC2C(=O)N[C@H](CC(N)=O)C(=O)N2CCC[C@H]2C(=O)N[C@H](Cc2c[nH]cn2)C(=O)N[C@@H](CC(C)C)C(=O)N2C[C@H](O)CC2C(=O)N[C@H](Cc2c[nH]c3ccccc23)C(=O)N[C@@H](CO)C(=O)N[C@@H](Cc2c[nH]c3ccccc23)C(=O)N1C (stereo partly drawn) [Example 1220]
> 30.5 nM	> 74.3 nM	CC(C)C[C@@H]1NC(=O)[C@@H](Cc2c[nH]cn2)NC(=O)[C@@H]2CCCN2C(=O)[C@@H](CC(N)=O)NC(=O)C(C)N(C)C(=O)[C@H](Cc2ccc(O)cc2)NC(=O)CSC[C@H](C(=O)NCC(N)=O)NC(=O)[C@H](C)NC(=O)[C@@H](CC(=O)O)N(C)C(=O)[C@@H](CCCCN)N(C)C(=O)[C@H](Cc2c[nH]c3ccccc23)NC(=O)[C@H](CO)NC(=O)[C@@H](Cc2c[nH]c3ccccc23)NC(=O)C2C[C@@H](O)CN2C1=O (stereo partly drawn) [Example 1221]
6.76 to 30.3 nM	> 74.3 nM	CCCC[C@H]1C(=O)N(C)[C@@H](CCCC)C(=O)N[C@@H](CN)C(=O)N[C@H](C(=O)NCC(N)=O)CSCC(=O)N[C@@H](Cc2ccc(O)cc2)C(=O)N2CCC[C@H]2C(=O)N[C@@H](CC(=O)O)C(=O)N2CCC[C@H]2C(=O)N[C@@H](CN)C(=O)N[C@@H](CC(=O)O)C(=O)N2C[C@H](O)C[C@H]2C(=O)N[C@@H](Cc2c[nH]c3ccccc23)C(=O)N[C@@H](CCN)C(=O)N[C@@H](Cc2csc3ccccc23)C(=O)N1C [Example 1222] ({CH2CO}-YPDP[Dap]D[Hyp]W[Dab][Bta][NMeNle][NMeNle][Dap]CG-NH2; thioether N-14)
0.385 to 6.74 nM	0.158 to 4.71 nM	CCCC[C@H]1C(=O)N(C)[C@@H](CCCC)C(=O)N[C@@H](CN)C(=O)N[C@H](C(=O)NCC(N)=O)CSCC(=O)N[C@@H](Cc2ccc(O)cc2)C(=O)N(C)[C@@H](C)C(=O)N[C@@H](CC(=O)O)C(=O)N2CCC[C@H]2C(=O)N[C@@H](CN)C(=O)N[C@@H](CCC(N)=O)C(=O)N2C[C@H](O)C[C@H]2C(=O)N[C@@H](Cc2c[nH]c3ccccc23)C(=O)N[C@@H](CCN)C(=O)N[C@@H](Cc2csc3ccccc23)C(=O)N1C [Example 1223] ({CH2CO}-Y[NMeA]DP[Dap]Q[Hyp]W[Dab][Bta][NMeNle][NMeNle][Dap]CG-NH2; thioether N-14)
0.385 to 6.74 nM	0.158 to 4.71 nM	CCCC[C@H]1C(=O)N(C)[C@@H](CCCC)C(=O)N[C@@H](CN)C(=O)N[C@H](C(=O)NCC(N)=O)CSCC(=O)N[C@@H](Cc2ccc(O)cc2)C(=O)N(C)[C@@H](C)C(=O)N[C@@H](CC(=O)O)C(=O)N2CCC[C@H]2C(=O)N[C@@H](CN)C(=O)N[C@@H](CC(=O)O)C(=O)N2C[C@H](O)C[C@H]2C(=O)N[C@@H](Cc2c[nH]c3ccccc23)C(=O)N[C@@H](CCN)C(=O)N[C@@H](Cc2csc3ccccc23)C(=O)N1C [Example 1224] ({CH2CO}-Y[NMeA]DP[Dap]D[Hyp]W[Dab][Bta][NMeNle][NMeNle][Dap]CG-NH2; thioether N-14)
0.385 to 6.74 nM	0.158 to 4.71 nM	CCCC[C@H]1C(=O)N(C)[C@@H](CCCC)C(=O)N[C@@H](CN)C(=O)N[C@H](C(=O)NCC(N)=O)CSCC(=O)N[C@@H](Cc2ccc(O)cc2)C(=O)N(C)[C@@H](C)C(=O)N[C@@H](CC(N)=O)C(=O)N2CCC[C@H]2C(=O)N[C@@H](CN)C(=O)N[C@@H](CCC(N)=O)C(=O)N2C[C@H](O)C[C@H]2C(=O)N[C@@H](Cc2c[nH]c3ccccc23)C(=O)N[C@@H](CCN)C(=O)N[C@@H](Cc2csc3ccccc23)C(=O)N1C [Example 1225] ({CH2CO}-Y[NMeA]NP[Dap]Q[Hyp]W[Dab][Bta][NMeNle][NMeNle][Dap]CG-NH2; thioether N-14)
0.385 to 6.74 nM	0.158 to 4.71 nM	CCCC[C@H]1C(=O)N(C)[C@@H](CCCC)C(=O)N[C@@H](CN)C(=O)N[C@H](C(=O)NCC(N)=O)CSCC(=O)N[C@@H](Cc2ccc(O)cc2)C(=O)N(C)[C@@H](C)C(=O)N[C@@H](CC(N)=O)C(=O)N2CCC[C@H]2C(=O)N[C@@H](CN)C(=O)N[C@@H](CC(=O)O)C(=O)N2C[C@H](O)C[C@H]2C(=O)N[C@@H](Cc2c[nH]c3ccccc23)C(=O)N[C@@H](CCN)C(=O)N[C@@H](Cc2csc3ccccc23)C(=O)N1C [Example 1226] ({CH2CO}-Y[NMeA]NP[Dap]D[Hyp]W[Dab][Bta][NMeNle][NMeNle][Dap]CG-NH2; thioether N-14)
> 30.5 nM	> 74.3 nM	CCCC[C@H]1C(=O)N(C)[C@@H](CCCC)C(=O)N[C@@H](CCCNC(=N)N)C(=O)N[C@H](C(=O)NCC(N)=O)CSCC(=O)N[C@@H](Cc2ccc(O)cc2)C(=O)N2CC[C@H](O)[C@H]2C(=O)N[C@@H](CC(N)=O)C(=O)N2CCC[C@H]2C(=O)N[C@@H](Cc2cnc[nH]2)C(=O)N[C@@H](CC(C)C)C(=O)N2CCC[C@H]2C(=O)N[C@@H](Cc2c[nH]c3ccccc23)C(=O)N[C@@H](CO)C(=O)N[C@@H](Cc2csc3ccccc23)C(=O)N1C [Example 1227] ({CH2CO}-Y[Pro(3S-OH)]NPHLPWS[Bta][NMeNle][NMeNle]RCG-NH2; thioether N-14)
6.76 to 30.3 nM	4.78 to 72.9 nM	CCCC[C@H]1C(=O)N(C)[C@@H](CCCC)C(=O)N[C@@H](CN)C(=O)N[C@H](C(=O)NCC(N)=O)CSCC(=O)N[C@@H](Cc2ccc(O)cc2)C(=O)N2CCC[C@H]2C(=O)N[C@@H](CC(=O)O)C(=O)N2CCC[C@H]2C(=O)N[C@@H](CN)C(=O)N[C@@H](CCC(N)=O)C(=O)N2C[C@H](O)CC2C(=O)N[C@@H](Cc2c[nH]c3ccccc23)C(=O)N[C@@H](CCN)C(=O)N[C@@H](Cc2csc3ccccc23)C(=O)N1C (stereo partly drawn) [Example 1228] ({CH2CO}-YPDP[Dap]Q[ξPro(4R-OH)]W[Dab][Bta][NMeNle][NMeNle][Dap]CG-NH2; thioether N-14)
6.76 to 30.3 nM	4.78 to 72.9 nM	CCCC[C@H]1C(=O)N(C)[C@@H](CCCC)C(=O)N[C@@H](C)C(=O)N[C@H](C(=O)NCC(=O)O)CSCC(=O)N[C@@H](Cc2ccc(O)cc2)C(=O)N(C)[C@@H](C)C(=O)N[C@@H](CC(N)=O)C(=O)N2CCC[C@H]2C(=O)N[C@@H](Cc2cnc[nH]2)C(=O)N[C@@H](CC(C)C)C(=O)N[C@@H](CCN)C(=O)N[C@@H](Cc2c[nH]c3ccccc23)C(=O)N[C@@H](CO)C(=O)N[C@@H](Cc2c[nH]c3ccccc23)C(=O)N1C [Example 1229]
> 30.5 nM	> 74.3 nM	C=CCOC(=O)NCCC[C@@H]1NC(=O)[C@H](CCCC)N(C)C(=O)[C@H](CCCC)N(C)C(=O)[C@H](Cc2csc3ccccc23)NC(=O)[C@H](CCNC(=O)OCC=C)NC(=O)[C@H](Cc2c[nH]c3ccccc23)NC(=O)[C@@H]2C[C@@H](O)CN2C(=O)[C@H](CCC(=O)O)NC(=O)[C@H](Cc2cnc[nH]2)NC(=O)[C@@H]2CCCN2C(=O)[C@H](CCCN)NC(=O)[C@H](C)N(C)C(=O)[C@H](Cc2ccc(O)cc2)NC(=O)CSC[C@@H](C(=O)NCC(N)=O)NC1=O [Example 1230] ({CH2CO}-Y[NMeA][Orn]PHE[Hyp]W[Dab](Alloc)[Bta][NMeNle][NMeNle][Orn](Alloc)CG-NH2; thioether N-14)
0.385 to 6.74 nM	0.158 to 4.71 nM	CCCC[C@H]1C(=O)N(C)[C@@H](CCCC)C(=O)N[C@@H](C)C(=O)N[C@H](C(N)=O)CSCC(=O)N[C@@H](Cc2ccc(O)cc2)C(=O)N(C)[C@@H](C)C(=O)N[C@@H](CC(=O)O)C(=O)N2CCC[C@H]2C(=O)N[C@@H](Cc2cnc[nH]2)C(=O)N[C@@H](CCCN)C(=O)N2C[C@H](O)C[C@H]2C(=O)N[C@@H](Cc2c[nH]c3ccccc23)C(=O)N[C@@H](CO)C(=O)N[C@@H](Cc2c[nH]c3ccccc23)C(=O)N1C [Example 1231] ({CH2CO}-Y[NMeA]DPH[Orn][Hyp]WSW[NMeNle][NMeNle]AC-NH2; thioether N-14)
6.76 to 30.3 nM	0.158 to 4.71 nM	CCCC[C@H]1C(=O)N(C)[C@@H](CCCC)C(=O)N[C@@H](CCCNC(=N)N)C(=O)N[C@H](C(=O)NCC(N)=O)CSCC(=O)N[C@@H](Cc2ccc(O)cc2)C(=O)N2CCCC[C@H]2C(=O)N[C@@H](CC(=O)O)C(=O)N2CCC[C@H]2C(=O)N[C@@H](CN)C(=O)N[C@@H](CC(C)C)C(=O)N2C[C@H](O)C[C@H]2C(=O)N[C@@H](Cc2c[nH]c3ccccc23)C(=O)N[C@@H](CO)C(=O)N[C@@H](Cc2c[nH]c3ccccc23)C(=O)N1C [Example 1233] ({CH2CO}-Y[Pip]DP[Dap]L[Hyp]WSW[NMeNle][NMeNle]RCG-NH2; thioether N-14)
